Source: patent publication US12268798B2, “Method for screening of unpleasant odor masking agents” (Takasago International Corporation, priority 2020, dated 2025)

Key:
olfactory receptor OR2L3 [1] = biological target: T1, olfactory receptor OR2L3 (Homo sapiens, UniProt Q8NG85); assay: Luciferase reporter gene assay: effect of suppressing the response of OR2L3 to unpleasant odor-causing substance; type: cell-based; conditions: for Effect of suppressing the response of OR2L3 to indole: test substance mixed with indole, FIGS. 10 to 12; for Effect of suppressing the response of OR2L3 to skatole: test substance mixed with skatole, ratio of Fold Increase value, FIGS. 6 to 9
T1 construct: N-terminal 20 amino acid residues of bovine rhodopsin (Rho tag); expressed in transfected cells; host or cells: HEK293T cells, transient lipofection with the pME18S expression vector, an RTP1S vector and the luciferase reporter vectors
T1 sequence (Q8NG85 1-312): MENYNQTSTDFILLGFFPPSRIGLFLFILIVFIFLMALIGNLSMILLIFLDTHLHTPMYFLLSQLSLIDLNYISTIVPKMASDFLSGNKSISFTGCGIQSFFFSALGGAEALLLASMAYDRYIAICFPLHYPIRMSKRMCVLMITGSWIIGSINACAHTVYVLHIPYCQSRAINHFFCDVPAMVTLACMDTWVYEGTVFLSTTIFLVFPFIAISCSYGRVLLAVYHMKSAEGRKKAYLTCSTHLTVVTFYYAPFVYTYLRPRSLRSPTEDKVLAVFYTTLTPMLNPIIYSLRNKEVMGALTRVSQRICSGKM
Procedure: (§1) 0.05 μg of the human olfactory receptor gene expression vector, 0.01 μg of an RTP1S vector, 0.01 μg of a firefly luciferase vector pGL4.29 containing a cAMP-responsive sequence promoter (Promega), and 0.005 μg of a Renilla luciferase vector pGL4.74 containing a thymidine kinase promoter (Promega) were dissolved in 10 μL of Opti-MEM I (gibco) to obtain a gene solution (for one well). 100 μL of HEK293T cells were seeded in each well of a 96-well plate (Biocoat manufactured by Corning) so as to reach confluency after 24 hours. According to the directions for use of Lipofectamine 3000, by the lipofection method, the gene solution was added to each well to perform gene transfer to cells, and culturing was performed under 5% carbon dioxide atmosphere at 37° C. for 24 hours.
After removing the culture medium, 50 μL of CD293 medium (gibco) (20 μM L-glutamine added) including measured concentration of an aroma compound as a sample was added to each well, and stimulation was performed for 3 hours. After that, the luciferase activity was measured according to the directions for use of Dual-Luciferase Reporter Assay System (Promega). The response strength of the olfactory receptor was expressed by the Fold Increase value, which is obtained by dividing the luciferase activity generated by stimulation of the aroma compound by the luciferase activity generated in the test system not including the aroma compound. […]
With respect to unpleasant odor masking agents (group of candidate substances) including Group A shown in Table 1, the effects of suppressing the response of OR2L3 that strongly responded to unpleasant odors were measured by means of luciferase reporter gene assay.
In luciferase reporter gene assay, skatole and Guava coeur (Ethyl 3-mercapto-2-methylbutyrate) were used by being mixed with a sample. The Fold Increase value in the test in which Guava coeur was not mixed was regarded as 1, and the ratio of the Fold Increase value in the test in which Guava coeur was mixed was obtained.
Guava coeur in the evaluation of the effect of suppressing the response of OR2L3 was replaced by Dextramber® (1-(2,2,6-trimethylcyclohexyl) hexan-3-ol, registered trademark), and the test was conducted in the same manner. […] Similarly, Guava coeur was replaced by Hindinol® (2-methyl-4-(2,2,3-trimethyl-3-cyclopentenyl)-2-buten-1-ol, registered trademark) and the test was conducted.
Regarding the unpleasant odor in the evaluation of the effect of suppressing the response of OR2L3, skatole was replaced by indole, and the test was conducted in the same manner. […]

skatole odor = assay: Sensory evaluation of unpleasant odor suppression ability (skatole), panel of 20 persons; type: in vivo, human; conditions: for Skatole strength: average rating of 20 persons, scale 0 to 10, unpleasant odor alone rated 8, 10 μL skatole diluted 100-fold plus 1 μL test substance, 1 hour at room temperature; for Effect of suppressing the unpleasant odors (in words): unpleasant odors = skatole or indole
Procedure: (§2) The unpleasant odor suppression ability of test substances having activity to inhibit receptor action was confirmed by sensory evaluation. A cotton ball on which 10 μL of skatole or indole diluted 100-fold with triethyl citrate as an unpleasant odor and 1 μL of a test substance were dropped was put into a plastic bottle (OZO-40 manufactured by Takemoto Yohki Co., Ltd.). The bottle was allowed to stand at room temperature for 1 hour to sufficiently volatilize odor molecules therein. The sensory evaluation test was conducted by a panel consisting of 20 persons, who made evaluation as follows: the odor strength in the case where the unpleasant odor was dropped solely was rated as 8, and the unpleasant odor strength in the case where the test substance was mixed was rated as from 0 (the unpleasant odor is not smelled) to 10 (the unpleasant odor is smelled very strongly). The average value was calculated from obtained numerical values.

indole odor = assay: Sensory evaluation of unpleasant odor suppression ability (indole), panel of 20 persons; type: in vivo, human; conditions: for Indole strength: average rating of 20 persons, scale 0 to 10, unpleasant odor alone rated 8, 10 μL indole diluted 100-fold plus 1 μL test substance, 1 hour at room temperature
Procedure: as §2

olfactory receptor OR2L3 [2] = biological target: T1, olfactory receptor OR2L3; assay: Luciferase reporter gene assay: response of olfactory receptor OR2L3 to unpleasant odor-causing substance; type: cell-based; conditions: various concentrations; HEK293T cells expressing OR2L3; FIGS. 1 to 5
Procedure: A human olfactory receptor gene was obtained by cloning according to the PCR method using Human Genomic DNA: Female (Promega) based on the sequence information registered in GenBank. The N-terminal 20 amino acid residues of bovine rhodopsin were incorporated into a pME18S vector, and the obtained human olfactory receptor gene was further incorporated downstream thereof, thereby obtaining a human olfactory receptor gene expression vector.
as §1
(§3) After removing the culture medium, 50 μL of CD293 medium (gibco) (20 μM L-glutamine added) including measured concentration of an aroma compound as a sample was added to each well, and stimulation was performed for 3 hours. After that, the luciferase activity was measured according to the directions for use of Dual-Luciferase Reporter Assay System (Promega). The response strength of the olfactory receptor was expressed by the Fold Increase value, which is obtained by dividing the luciferase activity generated by stimulation of the aroma compound by the luciferase activity generated in the test system not including the aroma compound.
(§4) Responses of the olfactory receptor OR2L3 to skatole, indole, α-terpineol, 4-terpineol or p-methylacetophenone as a typical example of the unpleasant odor-causing substance were measured with various concentrations by means of luciferase reporter gene assay. […] Meanwhile, in the Mock test (using cells in which OR2L3 was not expressed), no response was shown. That is, it was shown that OR2L3 specifically responds to the respective unpleasant odor-causing substances.

[3] = tested on: HEK293T cells in which OR2L3 was not expressed (Mock); assay: Mock test, luciferase reporter gene assay using cells in which OR2L3 was not expressed; type: cell-based, human
Procedure: as §1, §3, §4

Compound | Effect of suppressing the response of OR2L3 to skatole (olfactory receptor OR2L3 [1]) | Response of the olfactory receptor OR2L3 (Fold Increase) (olfactory receptor OR2L3 [2]) | Skatole strength (skatole odor) | Effect of suppressing the unpleasant odors (in words) (skatole odor; sensory evaluation) | Indole strength (indole odor) | Response in the Mock test [3] | other results
CCCC(O)CCC1C(C)CCCC1(C)C (stereo not shown) [1-(2,2,6-trimethylcyclohexyl)hexan-3-ol] | concentration-dependently reducing | – | 4.0 | suppress | 3.9 | – | Effect of suppressing the response of OR2L3 to indole (olfactory receptor OR2L3 [1]): concentration-dependently reducing
O=C1CCCC=CCCCCCCCCCC1 [5-cyclohexadecenone] | – | – | 4.2 | suppress | 3.6 | – | –
CC(c1ccccc1)C1CC1C(C)(C)O (stereo not shown) [Dimethyl-2-(1-phenylethyl)cyclopropylmethanol] | – | – | 2.5 | suppress | 2.4 | – | –
CC/C=C\CCOC(=O)CCCCC [cis-3-hexenyl hexanoate, reference compound] | concentration-dependently reducing | – | – | – | – | – | –
c1ccc2[nH]ccc2c1 [indole] | – | concentration-dependent responses | – | – | – | no response | –
CC1CCC(C(C)(C)S)C(=O)C1 (stereo not shown) [p-mentha-8-thio1-3-one, p-mentha-8-thiol-3-one] | – | – | 3.9 | suppress | 3.7 | – | –
CC(=O)c1ccc(C)cc1 [p-methylacetophenone] | – | concentration-dependent responses | – | – | – | no response | –
Cc1c[nH]c2ccccc12 [skatole] | – | concentration-dependent responses | – | – | – | no response | –
Methyl fenchol | suppresses | – | 3.3 | – | 3.1 | – | Suppression of the strength of skatole odor (in words) (skatole odor; sensory evaluation): significantly suppressed; Suppression of the strength of indole odor (in words) (indole odor; sensory evaluation): suppressed

The next lines start with results.

Effect of suppressing the response of OR2L3 to skatole (olfactory receptor OR2L3 [1]) | Response of the olfactory receptor OR2L3 (Fold Increase) (olfactory receptor OR2L3 [2]) | Compound | Skatole strength (skatole odor) | Effect of suppressing the unpleasant odors (in words) (skatole odor; sensory evaluation) | Indole strength (indole odor) | Response in the Mock test [3] | other results
concentration-dependently reducing | – | CC(=CCC1CC=C(C)C1(C)C)CO (stereo not shown) [2-methyl-4-(2,2,3-trimethyl-3-cyclopentenyl)-2-buten-1-ol] | 3.6 | suppress | 4.1 | – | Effect of suppressing the response of OR2L3 to indole (olfactory receptor OR2L3 [1]): concentration-dependently reducing
did not suppress | – | CC(C)(C)C1CCC(O)CC1 (stereo not shown) [4-t-butyleyclohexanol, 4-t-butylcyclohexanol, reference compound] | 6.3 | – | 6.0 | – | –
– | concentration-dependent responses | CC1=CCC(O)(C(C)C)CC1 (stereo not shown) [4-terpineol] | – | – | – | no response | –
concentration-dependently reducing | – | CCOC(=O)C(C)C(C)S (stereo not shown) [Ethyl 3-mercapto-2-methylbutyrate] | 3.0 | suppress | 3.3 | – | Effect of suppressing the response of OR2L3 to indole (olfactory receptor OR2L3 [1]): concentration-dependently reducing
did not suppress | – | CCCCCCOC(=O)c1ccccc1O [Hexyl salicylate, hexyl salicylate, reference compound] | 6.9 | – | 6.7 | – | –
– | concentration-dependent responses | CC1=CCC(C(C)(C)O)CC1 (stereo not drawn) [α-terpineol] | – | – | – | no response | –
